From patent publication EP0417803A1, “[N-(gamma-glutamyl)glycyl] alanine derivatives” (SANDOZ LTD., priority 1989, dated 1991)

Test: Induction of endotoxin shock in the mouse
Conditions: in vivo, read-out: LD₅₀
From the text: The test method is essentially as described in GB 2'179'945 A and DE 37'30'905.

CCCCCCC(=O)N[C@H](CCC(=O)N[C@H](/C=C/CC(O)C(=O)OCCCC)C(=O)N[C@@H](C)C(=O)OCC)C(=O)OCc1ccccc1 (stereo partly drawn) [Example 1, {N-[N′-Heptanoyl-(R)-γ-glutamyl-(α-benzylester)]-(R)-α-[2-(RS)-hydroxypent-4-enoic acid butyl ester-5-yl]glycyl]-(S)-alanine ethyl ester] gave an LD50 of 12 mg/kg.
